Data from the NIST ThermoML archive (doi:10.1021/je400056z).
Numbers after ± are expanded uncertainties.

Assay: xn = mol fraction of the nth substance listed
Conditions: Liquid, Vibrating tube method

A mass density (362.09 K, 24866 kPa, x2 = 0.7514) of 690.92 ± 0.51 kg/m3, a mass density (362.19 K, 7007 kPa, x2 = 0.3148) of 638.82 ± 0.33 kg/m3 and a mass density (362.19 K, 8020 kPa, x2 = 0.3148) of 641.6 ± 0.34 kg/m3 were found for `CCCCCCC` [heptane] + O=C=O in this work. The mass density (362.19 K, 9013 kPa, x2 = 0.3148) was 644.14 ± 0.35 kg/m3, the mass density (362.19 K, 10009 kPa, x2 = 0.3148) was 646.61 ± 0.36 kg/m3 and the mass density (362.19 K, 11005 kPa, x2 = 0.3148) was 648.99 ± 0.36 kg/m3. It also gave a mass density (362.19 K, 12009 kPa, x2 = 0.3148) of 651.27 ± 0.37 kg/m3, a mass density (362.19 K, 12998 kPa, x2 = 0.3148) of 653.42 ± 0.38 kg/m3 and a mass density (362.19 K, 13999 kPa, x2 = 0.3148) of 655.52 ± 0.39 kg/m3. The mass density (362.19 K, 15011 kPa, x2 = 0.3148) was 657.61 ± 0.4 kg/m3, the mass density (362.19 K, 16007 kPa, x2 = 0.3148) was 659.59 ± 0.4 kg/m3 and the mass density (362.19 K, 17005 kPa, x2 = 0.3148) was 661.48 ± 0.41 kg/m3. The mass density (362.19 K, 18002 kPa, x2 = 0.3148) was 663.3 ± 0.42 kg/m3, the mass density (362.19 K, 18999 kPa, x2 = 0.3148) was 665.1 ± 0.43 kg/m3 and the mass density (362.19 K, 20006 kPa, x2 = 0.3148) was 666.9 ± 0.44 kg/m3. The mass density (362.19 K, 21004 kPa, x2 = 0.3148) was 668.62 ± 0.45 kg/m3, the mass density (362.19 K, 22001 kPa, x2 = 0.3148) was 670.29 ± 0.45 kg/m3 and the mass density (362.19 K, 23006 kPa, x2 = 0.3148) was 671.94 ± 0.46 kg/m3. It also gave a mass density (362.19 K, 24001 kPa, x2 = 0.3148) of 673.55 ± 0.47 kg/m3, a mass density (362.19 K, 25007 kPa, x2 = 0.3148) of 675.13 ± 0.48 kg/m3 and a mass density (362.25 K, 17354 kPa, x2 = 0.9496) of 518.07 ± 0.81 kg/m3. It also gave a mass density (362.25 K, 17995 kPa, x2 = 0.9496) of 536.06 ± 0.78 kg/m3, a mass density (362.25 K, 19006 kPa, x2 = 0.9496) of 561.22 ± 0.74 kg/m3 and a mass density (362.25 K, 20005 kPa, x2 = 0.9496) of 583.24 ± 0.7 kg/m3. The mass density (362.25 K, 21002 kPa, x2 = 0.9496) was 602.87 ± 0.67 kg/m3, the mass density (362.25 K, 21997 kPa, x2 = 0.9496) was 620.08 ± 0.64 kg/m3 and the mass density (362.25 K, 22998 kPa, x2 = 0.9496) was 635.9 ± 0.62 kg/m3. The mass density (362.25 K, 24005 kPa, x2 = 0.9496) was 650.25 ± 0.6 kg/m3, the mass density (362.25 K, 24186 kPa, x2 = 0.9496) was 652.75 ± 0.6 kg/m3 and the mass density (362.38 K, 4014 kPa, x2 = 0.0218) was 629.41 ± 0.3 kg/m3. For the same compound, the mass density (362.38 K, 5003 kPa, x2 = 0.0218) was 630.95 ± 0.31 kg/m3, the mass density (362.38 K, 6009 kPa, x2 = 0.0218) was 632.44 ± 0.32 kg/m3 and the mass density (362.38 K, 7003 kPa, x2 = 0.0218) was 633.95 ± 0.32 kg/m3. It also gave a mass density (362.38 K, 8010 kPa, x2 = 0.0218) of 635.37 ± 0.33 kg/m3, a mass density (362.38 K, 9008 kPa, x2 = 0.0218) of 636.85 ± 0.34 kg/m3 and a mass density (362.38 K, 9009 kPa, x2 = 0.5085) of 638.92 ± 0.36 kg/m3. It also gave a mass density (362.38 K, 10008 kPa, x2 = 0.5085) of 643.09 ± 0.37 kg/m3, a mass density (362.38 K, 10010 kPa, x2 = 0.0218) of 638.18 ± 0.35 kg/m3 and a mass density (362.38 K, 10998 kPa, x2 = 0.5085) of 646.98 ± 0.37 kg/m3. The mass density (362.38 K, 11002 kPa, x2 = 0.0218) was 639.5 ± 0.36 kg/m3, the mass density (362.38 K, 12004 kPa, x2 = 0.0218) was 640.84 ± 0.37 kg/m3 and the mass density (362.38 K, 12009 kPa, x2 = 0.5085) was 650.8 ± 0.4 kg/m3. For the same compound, the mass density (362.38 K, 13001 kPa, x2 = 0.0218) was 642.13 ± 0.38 kg/m3, the mass density (362.38 K, 13001 kPa, x2 = 0.5085) was 654.31 ± 0.41 kg/m3 and the mass density (362.38 K, 14002 kPa, x2 = 0.5085) was 657.71 ± 0.41 kg/m3. The mass density (362.38 K, 14009 kPa, x2 = 0.0218) was 643.41 ± 0.39 kg/m3, the mass density (362.38 K, 15004 kPa, x2 = 0.0218) was 644.62 ± 0.4 kg/m3 and the mass density (362.38 K, 15013 kPa, x2 = 0.5085) was 660.97 ± 0.42 kg/m3. For the same compound, the mass density (362.38 K, 16005 kPa, x2 = 0.0218) was 645.88 ± 0.41 kg/m3, the mass density (362.38 K, 16008 kPa, x2 = 0.5085) was 664.05 ± 0.42 kg/m3 and the mass density (362.38 K, 16999 kPa, x2 = 0.0218) was 647.06 ± 0.42 kg/m3. For the same compound, the mass density (362.38 K, 17005 kPa, x2 = 0.5085) was 667.09 ± 0.42 kg/m3, the mass density (362.38 K, 18001 kPa, x2 = 0.0218) was 648.25 ± 0.43 kg/m3 and the mass density (362.38 K, 18005 kPa, x2 = 0.5085) was 670.02 ± 0.43 kg/m3. It also gave a mass density (362.38 K, 18994 kPa, x2 = 0.0218) of 649.38 ± 0.44 kg/m3, a mass density (362.38 K, 19006 kPa, x2 = 0.5085) of 672.76 ± 0.43 kg/m3 and a mass density (362.38 K, 19999 kPa, x2 = 0.0218) of 650.56 ± 0.45 kg/m3. The mass density (362.38 K, 20009 kPa, x2 = 0.5085) was 675.44 ± 0.44 kg/m3, the mass density (362.38 K, 21006 kPa, x2 = 0.0218) was 651.69 ± 0.46 kg/m3 and the mass density (362.38 K, 21006 kPa, x2 = 0.5085) was 678.11 ± 0.45 kg/m3. The mass density (362.38 K, 22002 kPa, x2 = 0.0218) was 652.83 ± 0.47 kg/m3, the mass density (362.38 K, 22010 kPa, x2 = 0.5085) was 680.57 ± 0.45 kg/m3 and the mass density (362.38 K, 23002 kPa, x2 = 0.5085) was 683.07 ± 0.46 kg/m3. For the same compound, the mass density (362.38 K, 23003 kPa, x2 = 0.0218) was 653.91 ± 0.48 kg/m3, the mass density (362.38 K, 23995 kPa, x2 = 0.0218) was 655.01 ± 0.49 kg/m3 and the mass density (362.38 K, 23997 kPa, x2 = 0.5085) was 685.41 ± 0.46 kg/m3. For the same compound, the mass density (362.38 K, 25005 kPa, x2 = 0.0218) was 656.12 ± 0.5 kg/m3 and the mass density (362.38 K, 25008 kPa, x2 = 0.5085) was 687.82 ± 0.47 kg/m3.
